Experimental data reported in paper PMC5445127 (Frontiers in Plant Science, 2017).

What was measured:
[1] = target: T1, ZmSIRK1 (ZmSIRK1^737-1045) (Zea mays, UniProt K7VIQ3); test: isothermal titration calorimetry; co-crystal structure; format: binding
T1 construct: gene ZEAMMB73_Zm00001d047570; kinase domain Ser737-Ser1045 (full length 1045 aa; KD 762-1040), E. coli BL21(DE3)-R3-pRARE2, pNIC28a-Bsa4, 6xHis tag removed by TEV; forward primer encodes S737-V-V-F-T-A-E (translated); motifs 907DYS909, 933PPE935; model residues 744-972, 977-1000, 1009-1045

[2] = target: T1, ZmSIRK1 (ZmSIRK1^737-1045); test: isothermal titration calorimetry; format: binding

T1 sequence (K7VIQ3 entry or part of it): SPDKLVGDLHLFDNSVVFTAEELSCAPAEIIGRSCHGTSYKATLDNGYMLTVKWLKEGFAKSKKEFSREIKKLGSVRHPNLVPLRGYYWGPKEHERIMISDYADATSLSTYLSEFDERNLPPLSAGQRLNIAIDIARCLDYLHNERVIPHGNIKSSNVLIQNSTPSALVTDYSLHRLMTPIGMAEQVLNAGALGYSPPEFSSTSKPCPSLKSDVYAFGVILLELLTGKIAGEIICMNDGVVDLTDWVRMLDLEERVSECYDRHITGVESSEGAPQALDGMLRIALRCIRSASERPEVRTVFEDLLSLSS

Kd [2] [nM]	Structure (SMILES)	Kd [1] [nM]
	Nc1ncnc2c1ncn2[C@@H]1O[C@H](COP(=O)(O)OP(=O)(O)NP(=O)(O)O)[C@@H](O)[C@H]1O [AMP-PNP]	2800
1760	CC(C)n1nc(-c2ccc3oc(N)nc3c2)c2c(N)ncnc21 [INK 128]	
1990	Nc1ncnc2c1c(-c1cnc3[nH]ccc3c1)nn2C1CCCC1 [PP121]	
